Laboratory results from patent US7566708B2, “Substituted pyrazolo{3,4-D}pyrimidines as p38 map kinase inhibitors” (Roche Palo Alto LLC, priority 2005, dated 2009).

biological target: T1, p38 MAP kinase (Homo sapiens, UniProt Q16539); assay: p38 (MAP) kinase in vitro assay; type: biochemical; settings: transfer of γ-33P from ATP to Myelin Basic Protein by phosphorylated recombinant p38 MAP kinase
T1 construct: made in house; host or cells: E. coli (co-expressed with SEK-1 and MEKK to obtain the phosphorylated form)
Procedure: This example illustrates a p38 (MAP) kinase in vitro assay useful for evaluating the compounds of the invention.
The p38 MAP kinase inhibitory activity of compounds of this invention in vitro was determined by measuring the transfer of the γ-phosphate from γ-^33P-ATP by p-38 kinase to Myelin Basic Protein (MBP), using a minor modification of the method described in Ahn, et al., J. Biol. Chem. 266:4220-4227 (1991). […] The phosphorylated form of the recombinant p38 MAP kinase was co-expressed with SEK-1 and MEKK in E. Coli (see, Khokhlatchev, et al., J. Biol. Chem. 272:11057-11062 (1997)) and then purified by affinity chromatography using a Nickel column.
The phosphorylated p38 MAP kinase was diluted in kinase buffer (20 mM 3-(N-morpholino)propanesulfonic acid, pH 7.2, 25 mM β-glycerol phosphate, 5 mM ethylene glycol-bis(beta-aminoethyl ether)-N,N,N′,N′-tetraacetic acid, 1 mM sodium or tho-vanadate, 1 mM dithiothreitol, 40 mM magnesium chloride). Test compound dissolved in DMSO or only DMSO (control) was added and the samples were incubated for 10 min at 30° C. The kinase reaction was initiated by the addition of a substrate cocktail containing MBP and γ-^33P-ATP. […] The phosphorylated MBP was then separated from the residual γ-^33P-ATP using a phosphocellulose membrane (Millipore, Bedfrod, Mass.) and quantitated using a scintillation counter (Packard, Meriden, Conn.).

T1 sequence (Q16539 whole entry): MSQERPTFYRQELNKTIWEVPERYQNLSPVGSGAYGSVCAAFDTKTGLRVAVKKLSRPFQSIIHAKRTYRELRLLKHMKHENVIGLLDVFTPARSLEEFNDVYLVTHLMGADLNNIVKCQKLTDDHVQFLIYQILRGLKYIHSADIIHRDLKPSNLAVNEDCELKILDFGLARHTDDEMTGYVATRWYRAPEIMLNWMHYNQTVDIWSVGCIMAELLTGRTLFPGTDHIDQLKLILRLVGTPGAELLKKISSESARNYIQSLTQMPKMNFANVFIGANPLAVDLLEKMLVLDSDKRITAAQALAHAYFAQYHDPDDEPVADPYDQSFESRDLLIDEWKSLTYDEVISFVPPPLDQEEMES

Compound	IC50
CC(C)(O)CNc1nc(Oc2ccc(F)cc2F)cc2[nH]nc(-c3cc(F)ccc3F)c12 [Compound 45, 1-[6-(2,4-Difluoro-phenoxy)-3-(2,5-difluoro-phenyl)-1H-pyrazolo[4,3-c]pyridin-4-ylamino]-2-methyl-propan-2-ol]	~1 nM

system: not given; assay: not given; settings: not given

Compound	melting point
Fc1ccc(Oc2ncc3c(-c4ccccc4Cl)n[nH]c3n2)c(F)c1 [Example 1, 3-(2-chlorophenyl)-6-(2,4-difluoro-phenoxy)-1H-pyrazolo[3,4-d]pyrimidine]	173.4 to 176.4 °C
Fc1ccccc1Nc1ncc2c(-c3ccccc3Cl)n[nH]c2n1 [Example 2, [3-(2-chlorophenyl)-1H-pyrazolo[3,4-d]pyrimidin-6-yl]-(2-fluorophenyl)amine]	230.2 to 232.4 °C
Fc1ccc(Sc2ncc3c(-c4ccccc4Cl)n[nH]c3n2)c(F)c1 [Example 3, 3-(2-chlorophenyl)-6-(2,4-difluorophenylsulfanyl)-1H-pyrazolo[3,4-d]pyrimidine]	177.6 to 183.2 °C
Fc1ccc(Oc2cnc3c(-c4ccccc4Cl)n[nH]c3n2)c(F)c1 [Example 5, 3-(2-chlorophenyl)-6-(2,4-difluorophenoxy)-1H-pyrazolo[3,4-b]pyrazine]	240.5 to 241.5 °C
COc1ccccc1-c1n[nH]c2cc(Oc3ccc(F)cc3F)cnc12 [Example 8, 6-(2,4-Difluoro-phenoxy)-3-(2-methoxy-phenyl)-1H-pyrazolo[4,3-b]pyridine]	143.2 to 144.9 °C
Clc1ccccc1Oc1ncc2c(-c3cccs3)n[nH]c2n1 [Example 14, 6-(2-Chloro-phenoxy)-3-thiophen-2-yl-1H-pyrazolo[3,4-d]pyrimidine]	221.3 to 223.1 °C
C[C@H](O)CNc1nc(Oc2ccc(F)cc2F)nc2[nH]nc(-c3ccccc3Cl)c12 [Example 16, (S)-1-[3-(2-chlorophenyl)-6-(2,4-difluorophenoxy)-1H-pyrazolo[3,4-d]pyrimidin-4-ylamino]propan-2-ol]	254.6 to 258.2 °C
OC[C@H](O)COc1nc(Oc2ccc(F)cc2F)nc2[nH]nc(-c3ccccc3Cl)c12 [Example 20, (S)-3-[3-(2-Chloro-phenyl)-6-(2,4-difluoro-phenoxy)-1H-pyrazolo[3,4-d]pyrimidin-4-yloxy]-propane-1,2-diol]	179.2 to 181.3 °C
C[C@H](O)CNc1nc(Oc2ccc(F)cc2F)cc2[nH]nc(-c3ccccc3Cl)c12 [Example 24, (S)-1-[3-(2-Chloro-phenyl)-6-(2,4-difluoro-phenoxy)-1H-pyrazolo[4,3-c]pyridin-4-ylamino]-propan-2-ol]	171.2 to 172 °C
